Laboratory results from PMC10150926, “PHT427 as an effective New Delhi metallo-β-lactamase-1 (NDM-1) inhibitor restored the susceptibility of meropenem against Enterobacteriaceae producing NDM-1” (Frontiers in Microbiology, 2023).
pKd: −log10 of the molar value.

Legend:
Assay type in all cases: binding
[1] = biological target: T1, New Delhi metallo-β-lactamase-1 (NDM-1) (Klebsiella pneumoniae, UniProt C7C422, Q123A); test: SPR
T1 construct: gene blaNDM-1

[2] = biological target: T2, New Delhi metallo-β-lactamase-1 (NDM-1) (Klebsiella pneumoniae, UniProt C7C422); test: SPR (also fluorescence quenching; purified enzyme inhibition with meropenem, IC50 […])
T2 construct: gene blaNDM-1

[3] = biological target: T3, New Delhi metallo-β-lactamase-1 (NDM-1) (Klebsiella pneumoniae, UniProt C7C422, N220A); test: SPR
T3 construct: gene blaNDM-1

CCCCCCCCCCCCc1ccc(S(=O)(=O)Nc2nncs2)cc1 [PHT427, 4-dodecyl-N-1,3,4-thiadiazol-2-yl-benzenesulfonamide]
pKd [1]: 3.91
pKd [2]: 4.20
pKd [3]: 3.05
